The values that follow come from ChEMBL document CHEMBL4477245, “Development of a Series of (1-Benzyl-3-(6-methoxypyrimidin-3-yl)-5-(trifluoromethoxy)-1H-indol-2-yl)methanols as Selective Protease Activated Receptor 4 (PAR4) Antagonists with in Vivo Utility and Activity Against γ-Thrombin” (J Med Chem, 2016).

Data set [1] is described as follows: Unbound protein binding in human plasma. The format is ADME, cell-free.
Data set [2] can be described thus: Unbound protein binding in rat plasma. The format is ADME, cell-free.
In data set [3] the target is T1, Proteinase-activated receptor 4 (Homo sapiens) (UniProt Q96RI0).
T1 sequence (whole entry): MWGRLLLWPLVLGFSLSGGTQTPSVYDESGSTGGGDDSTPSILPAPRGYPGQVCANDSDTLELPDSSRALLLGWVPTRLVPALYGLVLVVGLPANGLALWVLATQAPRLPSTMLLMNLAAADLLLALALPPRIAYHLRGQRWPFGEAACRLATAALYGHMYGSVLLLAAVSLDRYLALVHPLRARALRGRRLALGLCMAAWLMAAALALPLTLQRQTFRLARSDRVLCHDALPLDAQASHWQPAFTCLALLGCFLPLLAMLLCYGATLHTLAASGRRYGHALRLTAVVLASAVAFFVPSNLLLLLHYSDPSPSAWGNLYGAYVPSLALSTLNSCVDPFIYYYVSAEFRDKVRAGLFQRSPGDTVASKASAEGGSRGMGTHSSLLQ
Kind of data set: Antagonist activity against PAR4 activating peptide domain in human platelets assessed as inhibition of alpha2bbeta3 activation level at 10 uM by PAC1 binding assay.

In data set [4] the target is T2, Proteinase-activated receptor 4 (Homo sapiens, UniProt Q96RI0).
T2 sequence (Q96RI0 whole entry): T1 sequence (whole entry)
Kind of data set: Antagonist activity against PAR4 activating peptide domain in human platelets assessed as inhibition of alpha2bbeta3 activation level by PAC1 binding assay.

Data set [5] addresses T3, Proteinase-activated receptor 1 (Homo sapiens, UniProt P25116).
T3 sequence (P25116 whole entry): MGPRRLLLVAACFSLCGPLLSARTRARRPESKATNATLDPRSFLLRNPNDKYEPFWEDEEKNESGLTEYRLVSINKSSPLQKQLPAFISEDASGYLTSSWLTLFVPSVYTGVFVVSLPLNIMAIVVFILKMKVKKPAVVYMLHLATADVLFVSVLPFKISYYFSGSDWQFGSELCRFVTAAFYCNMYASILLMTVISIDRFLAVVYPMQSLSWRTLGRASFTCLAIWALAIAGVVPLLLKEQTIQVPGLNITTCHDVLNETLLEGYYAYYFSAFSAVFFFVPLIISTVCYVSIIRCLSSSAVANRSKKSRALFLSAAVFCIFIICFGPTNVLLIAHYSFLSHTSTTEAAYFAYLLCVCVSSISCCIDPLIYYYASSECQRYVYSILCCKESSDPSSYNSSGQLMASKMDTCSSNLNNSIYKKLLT
In words: Inhibition of PAR1 (unknown origin).

Data set [6] concerns the target T2, Proteinase-activated receptor 4. In words: Antagonist activity against PAR4 activating peptide domain in human platelets assessed as inhibition of P-selectin activation.
Another data set concerns the target Cytochrome P450 2C9 (Homo sapiens, UniProt P11712). Kind of data set: Inhibition of CYP2C9 in human liver microsomes incubated for 15 mins using diclofenac substrate in presence of NADPH by LC-MS/MS method.
A further data set has as its target Cytochrome P450 3A4 (Homo sapiens, UniProt P08684). In words: Inhibition of CYP3A4 in human liver microsomes incubated for 15 mins using midazolam substrate in presence of NADPH by LC-MS/MS method.
Another data set concerns the target Cytochrome P450 2D6 (Homo sapiens, UniProt P10635). Kind of data set: Inhibition of CYP2D6 in human liver microsomes incubated for 15 mins using dextromethorphan substrate in presence of NADPH by LC-MS/MS method.
The target in data set [7] is T1, Proteinase-activated receptor 4 (Homo sapiens). In words: Mixed competitive/non-competitive inhibition of PAR4 activating peptide domain in human platelets assessed as inhibition of alpha2bbeta3 activation level by PAC1 binding assay based by Schild analysis.
A short description of data set [8]: Half life in Sprague-Dawley rat at 0.2 mg/kg, iv through cassette dosing up to 6 hrs by LC-MS/MS method. The following applies: in vivo.
Data set [9] in a line: Unbound protein binding in rat plasma at 5 uM after 4 hrs by LC/MS/MS analysis.
In data set [10] the target is T1, Proteinase-activated receptor 4 (Homo sapiens). In words: Antagonist activity at PAR4 TL domain in human platelets assessed as gamma-thrombin-induced PAC1 binding response at 10 uM preincubated for 20 mins followed by agonist addition for 20 mins by FITC based flow cytometric analysis.
Data set [11] can be described thus: Volume of distribution in steady state in Sprague-Dawley rat at 0.2 mg/kg, iv through cassette dosing up to 6 hrs by LC-MS/MS method. To be noted: in vivo.
Data set [12] is described as follows: Unbound protein binding in human plasma at 5 uM after 4 hrs by LC/MS/MS analysis.
The target in data set [13] is T2, Proteinase-activated receptor 4. Kind of data set: Antagonist activity at PAR4 TL domain in human platelets assessed as gamma-thrombin-induced PAC1 binding response preincubated for 20 mins followed by agonist addition for 20 mins by FITC based flow cytometric analysis.
Another data set deals with T4, Cytochrome P450 1A2 (Homo sapiens, UniProt P05177).
T4 sequence (P05177 whole entry): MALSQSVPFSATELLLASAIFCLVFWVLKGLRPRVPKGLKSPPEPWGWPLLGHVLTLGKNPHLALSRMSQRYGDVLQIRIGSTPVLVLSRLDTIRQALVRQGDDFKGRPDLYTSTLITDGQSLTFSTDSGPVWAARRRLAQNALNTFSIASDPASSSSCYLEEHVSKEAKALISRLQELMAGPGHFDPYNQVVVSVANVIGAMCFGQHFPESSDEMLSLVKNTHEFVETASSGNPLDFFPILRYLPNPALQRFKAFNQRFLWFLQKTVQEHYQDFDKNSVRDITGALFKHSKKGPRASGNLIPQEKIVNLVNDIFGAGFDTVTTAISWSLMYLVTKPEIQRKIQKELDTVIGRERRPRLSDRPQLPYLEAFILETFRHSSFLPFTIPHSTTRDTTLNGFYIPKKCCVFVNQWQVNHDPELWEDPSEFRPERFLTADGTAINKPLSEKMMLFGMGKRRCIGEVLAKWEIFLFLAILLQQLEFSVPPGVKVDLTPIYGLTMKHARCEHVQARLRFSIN
In words: Inhibition of CYP1A2 in human liver microsomes incubated for 15 mins using phenacetin substrate in presence of NADPH by LC-MS/MS method.

SMILES strings stand for the structures. Active and inactive are the calls of the source. No cut-off for these calls is given here. Bounds are passed on as bounds.

Chain of Cytochrome P450 2C9 (P11712 whole entry): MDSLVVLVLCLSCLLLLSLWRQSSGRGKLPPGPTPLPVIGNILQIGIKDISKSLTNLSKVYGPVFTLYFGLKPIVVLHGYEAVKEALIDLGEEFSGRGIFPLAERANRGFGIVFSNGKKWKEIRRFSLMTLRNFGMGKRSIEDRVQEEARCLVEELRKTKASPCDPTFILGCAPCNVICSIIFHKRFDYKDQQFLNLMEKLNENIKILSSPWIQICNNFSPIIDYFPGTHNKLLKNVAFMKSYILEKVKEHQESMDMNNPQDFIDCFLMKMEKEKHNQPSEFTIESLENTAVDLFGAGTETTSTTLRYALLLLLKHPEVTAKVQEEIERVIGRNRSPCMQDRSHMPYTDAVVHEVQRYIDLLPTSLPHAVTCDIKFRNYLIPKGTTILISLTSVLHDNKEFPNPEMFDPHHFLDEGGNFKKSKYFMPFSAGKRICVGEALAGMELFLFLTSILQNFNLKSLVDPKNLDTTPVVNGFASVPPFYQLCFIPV
Chain of Cytochrome P450 3A4 (P08684 whole entry): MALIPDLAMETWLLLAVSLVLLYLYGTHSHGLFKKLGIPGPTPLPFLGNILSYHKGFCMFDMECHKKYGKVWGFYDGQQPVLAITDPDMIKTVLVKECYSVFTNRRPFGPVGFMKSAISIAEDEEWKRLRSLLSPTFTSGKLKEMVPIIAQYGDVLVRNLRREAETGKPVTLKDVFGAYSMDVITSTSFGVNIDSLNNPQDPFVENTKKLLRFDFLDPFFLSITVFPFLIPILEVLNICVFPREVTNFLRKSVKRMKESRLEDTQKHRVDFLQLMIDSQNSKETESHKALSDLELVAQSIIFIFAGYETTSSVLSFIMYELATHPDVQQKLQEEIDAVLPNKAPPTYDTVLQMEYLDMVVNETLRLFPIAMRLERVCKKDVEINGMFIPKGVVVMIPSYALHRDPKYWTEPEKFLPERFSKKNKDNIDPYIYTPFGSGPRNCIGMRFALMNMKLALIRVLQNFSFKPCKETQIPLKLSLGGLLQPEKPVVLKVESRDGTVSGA
Chain of Cytochrome P450 2D6 (P10635 whole entry, the tested form may be a part): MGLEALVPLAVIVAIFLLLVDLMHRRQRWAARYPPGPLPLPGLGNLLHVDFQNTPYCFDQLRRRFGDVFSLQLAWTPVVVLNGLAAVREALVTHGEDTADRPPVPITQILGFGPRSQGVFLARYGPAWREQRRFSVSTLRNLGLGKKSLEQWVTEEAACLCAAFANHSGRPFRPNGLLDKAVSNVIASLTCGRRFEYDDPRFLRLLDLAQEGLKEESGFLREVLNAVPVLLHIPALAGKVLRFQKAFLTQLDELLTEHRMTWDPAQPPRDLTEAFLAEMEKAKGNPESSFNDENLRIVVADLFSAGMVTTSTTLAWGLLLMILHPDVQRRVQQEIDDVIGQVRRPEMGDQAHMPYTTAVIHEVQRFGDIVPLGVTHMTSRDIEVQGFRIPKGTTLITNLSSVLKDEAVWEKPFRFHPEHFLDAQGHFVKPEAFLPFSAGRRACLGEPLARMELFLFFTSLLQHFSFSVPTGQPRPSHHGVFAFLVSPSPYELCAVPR

With `CCOC(=O)c1ccc(-c2nn(Cc3ccccc3)c3ccccc23)cc1`, the PB result in data set [1] and in [2] was “Unstable” throughout.

As for `COc1ccc(-c2c(CO)n(Cc3cccc(F)c3)c3ccc(OC(F)(F)F)cc23)cn1`, the %max in [3] amounted to 80.6%. The IC50 in data set [4] was greater than 10 µM.

Consider `OCc1c(-c2ccncc2)c2cc(OC(F)(F)F)ccc2n1Cc1ccccc1Cl`, for which, in data set [3], the %max worked out at 101%. Moreover, in data set [4], the IC50 was greater than 10 µM.

As to `COc1ccc(-c2c(CO)n(Cc3cccc(C(F)(F)F)c3)c3ccc(OC(F)(F)F)cc23)cn1`, in data set [3], the %max is 19.7%. For the same compound, the IC50 in data set [4] turned out to be 4.82 µM.

Regarding `COc1ccc(-c2c(CO)n(Cc3ccc(F)cc3F)c3ccc(OC(F)(F)F)cc23)cn1`, the IC50 was greater than 30 µM in [5] and 5.11 µM in data set [4]. In addition, the %max in [3] came to 19.7%.

As for `CCOC(=O)c1ccc(-c2cn(Cc3ccccc3)c3ccccc23)cc1`, the PB entry in [1] and in data set [2] was “Unstable” in each case.

On to `CSc1ncc(-c2c(CO)n(Cc3ccc(F)cc3F)c3ccc(OC(F)(F)F)cc23)cn1`, for which the %max in data set [3] was 15.6%. Also, the IC50 in data set [4] is 1.49 µM.

For `CCOc1ncc(-c2c(CO)n(Cc3ccccc3Cl)c3ccc(OC(F)(F)F)cc23)cn1`, in [3], the %max was determined as 35.4%. In [4], the IC50 came out at 4.91 µM.

Regarding `COc1ncc(-c2c(CO)n(Cc3ccccc3Cl)c3ccc(OC(F)(F)F)cc23)cn1`, the %max in data set [3] is 7.95%. Besides, in data set [4], the IC50 came out at 1.5 µM.

On to `COc1ccc2c(-c3ccc(OC)nc3)c(CO)n(Cc3ccccc3Cl)c2c1`, for which, in [3], the %max stood at 4.31%. The IC50 in data set [4] stood at 1.39 µM.

Regarding `COc1ccc(-c2c(CO)n(Cc3cccc(Br)c3)c3ccc(OC(F)(F)F)cc23)cn1`, in data set [3], the %max worked out at 27.1%. The IC50 in data set [4] came to 2.19 µM.

Turning to `COc1ccc(-c2c(CO)n(Cc3ccccc3Cl)c3cc(OC(F)(F)F)ccc23)cn1`, the results for the IC50 in data set [5] and in data set [4] were greater than 30 µM and 0.93 µM, respectively. The %max in data set [3] came out at 12.3%.

For `COc1ccc(-c2c(CO)n(Cc3ccccc3)c3ccc(OC(F)(F)F)cc23)cn1`, the %max in data set [3] was found to be 53.4%. Besides, in [4], the half-inhibitory concentration (IC50) was greater than 10 µM.

Consider `OCc1c(-c2cncnc2)c2cc(OC(F)(F)F)ccc2n1Cc1ccc(F)cc1F`, for which, in data set [3], the %max was 96.1%. Further, the IC50 in data set [4] was greater than 10 µM.

In the case of `CCOc1ccc2c(-c3ccc(OC)nc3)c(CO)n(Cc3ccccc3Cl)c2c1`, the %max in [3] amounted to 19.7%. For the same compound, the IC50 in data set [4] amounted to 3.76 µM.

With `COc1ccc2c(-c3cnc(SC)nc3)c(CO)n(Cc3ccccc3Cl)c2c1`, in data set [3], the %max stood at 21.3%. For the same compound, in [4], the IC50 was 4.15 µM.

`COc1ncc(-c2c(CO)n(Cc3ccc(F)cc3F)c3ccc(OC(F)(F)F)cc23)cn1`: in [3], the %max was determined as 53.6%.

`COc1ccc(-c2c(CO)n(C)c3ccc(C(F)(F)F)cc23)cn1`: the %max in data set [3] is 106%. Besides, the IC50 in [4] is greater than 10 µM.

`COc1nn2cc(-c3c(CO)n(Cc4ccccc4Cl)c4ccc(OC(F)(F)F)cc34)nc2s1`: the IC50 in data set [6] is 0.132 µM; at Cytochrome P450 2C9 it was 11.2 µM; at Cytochrome P450 3A4, greater than 30 µM; on Cytochrome P450 2D6, 1.2 µM; in data set [5], greater than 30 µM; in [13] it was 4.35 µM. Further, the values for the IC50 (at Cytochrome P450 1A2; in data set [4]) were greater than 30 µM and 0.18 µM, respectively. Besides, in [7], the inhibition entry was “Active”. Moreover, the t1/2 in data set [8] worked out at 6.1 h. The Fu in data set [9] was found to be 0.003; in [12], 0.004. In data set [10], the inhibition was determined as 39.4%. Further, the Vdss in data set [11] is 21.1 L/kg. Further, the %max in [3] was 3.2%.

With `COc1cccc(Cn2c(CO)c(-c3ccc(OC)nc3)c3cc(C(F)(F)F)ccc32)c1`, the %max in data set [3] is 108%. For the same compound, in [4], the IC50 is greater than 10 µM.

`COc1ccc(-c2c(CO)n(Cc3ccccc3F)c3ccc(OC(F)(F)F)cc23)cn1`: the %max in [3] is 89%. Also, the IC50 in [4] was greater than 10 µM.

On to `CSc1ncc(-c2c(CO)n(Cc3ccccc3Cl)c3cc(OC(F)(F)F)ccc23)cn1`, for which the values for the half-maximal inhibitory concentration (IC50) in data set [5] and in data set [4] were greater than 30 µM and 0.21 µM, respectively. The %max in data set [3] was 5.57%.

For the compound `COc1ccc(-c2c(CO)n(Cc3ccccc3Cl)c3ccc(OC(F)(F)F)cc23)cn1`, in data set [7], the inhibition result is “Active”.

As to `COc1ccc(-c2c(CO)n(Cc3cccc(Cl)c3)c3ccc(OC(F)(F)F)cc23)cn1`, the %max in [3] amounted to 95.5%. Moreover, the IC50 in data set [4] is greater than 10 µM.
